From patent US20110150914A1, “COMPOSITIONS AND METHODS FOR DENGUE VIRUS (DV) TREATMENT AND VACCINATION” (priority 2008, published 2011) come the findings set out here.

Ends that are not written are not given here.

Test [1] concerns CD8^+ T cells. Put plainly: IFN-γ ELISPOT with CD8^+ T cells of DENV2-infected C57BL/6 mice. Type of test: cell-based. The following applies: PL046 or S221 infected C57BL/6 mice.
Test [2] deals with DENV peptide-pulsed target cells. Put plainly: In vivo cytotoxicity assay. The following applies: IFN-α/βR^−/− mice infected 7 days previously with 10^10 GE S221; 4 h after i.v. transfer; targets pulsed 0.5 μg/ml.
The subject of test [3] is CD8^+ T cells. Description: Intracellular cytokine staining (IFN-γ), splenocytes of S221-infected IFN-α/βR^−/− mice. The settings on record: day 7 after 10^10 GE S221. It is filed as cell-based. The method, then:
All Ab were purchased from eBioscience with the exception of anti-CD8α-PerCP and anti-CD107a-FITC which were obtained from BD Biosciences. RBC in blood were lysed using RBC lysis buffer (eBioscience). For surface staining, splenocytes or blood cells were washed, incubated with supernatant from 2.4G2-producing hybridoma cells to block Fc receptors, and labeled with anti-CD8α-PerCP, anti-CD44-APC, and anti-CD62L-PE. For intracellular cytokine staining, 10^6 splenocytes or 10^5 blood cells were plated in 96-well U-bottom plates and stimulated with individual DENV peptides (0.1 μg/ml) in the presence of brefeldin A (GolgiPlug, BD Biosciences) for 5 h. For CD107a staining, CD107a-FITC (or rat IgG2a-FITC) was added to the wells at the same time as the peptide. Cells were washed, incubated with 2.4G2 supernatant, labeled with anti-CD8α-PerCP, fixed and permeabilized using the BD Cytofix/Cytoperm Kit, and stained with anti-IFN-γ-APC and anti-TNF-α-PE. Samples were read on a FACS Caliber (BD Biosciences) and analyzed using FloJo software (Tree Star, Inc.)
The S221-specific CD8^+ T cell response in the IFN-α/βR^−/− mice was studied. […]
The S221-specific CD8^+ T cell response in IFN-α/βR^−/− mice was further studied. […] Referring to FIGS. 5C, 5E and 5F, the number of splenic CD8^+ T cells in naïve (n=4) and infected (n=7) mice was measured (results described above). […] The data are expressed as the percent±SEM of seven mice tested in three independent experiments.
The initial epitope identification studies were performed in wild-type mice. […] Cells were then stained for surface CD8 and intracellular IFN-γ and analyzed by flow cytometry. […] Results are expressed as the mean±SEM of 13 wild-type and 7 IFN-α/βR^−/− mice were tested in at least three independent experiments. Referring FIGS. 8C and D, the figures show kinetics of the DENV-specific CD8^+ T cell response as determined by the study. […]

As to YSQVNPITL [NS4B99-107], the “IFN-γ ELISPOT response (net SFC per 10^6 CD8^+ T cells), in words” value in the test with CD8^+ T cells [1] is listed as “highest responses”. Besides, the “percentage killing of peptide-pulsed target cells” value in test [2] worked out at 85%. In addition, the “% of splenic CD8^+ T cells recognizing the peptide” value in the test with CD8^+ T cells [3] is 16.5%. Moreover, the “number of CD8^+ T cells producing IFN-γ (average)” value in the test on CD8^+ T cells [3] (spleen) was 1.1×10^7 CD8^+ T cells.
